We go through 1 compound from patent US20250213587A1, “ITK INHIBITORS FOR INCREASING TH1 CELL ACTIVITY” (Corvus Pharmaceuticals, Inc., priority 2022, published 2025).

Broadly, the IC50 is the concentration needed to halve the response being measured. A lower IC50 goes with inhibition by little substance.

One assay deals with S6 phosphorylation. The experiment in a line: pS6 flow cytometry after CD3/28 crosslinking. Type of assay: cell-based. To be noted: Homo sapiens, mean of three donors. Here is the method: PBMCs were pelleted (400×g at 4° C. for 5 minutes) and resuspended in RPMI+10% heat-inactivated fetal bovine serum (FBS) at 14.3×10^6 cells/mL; 70 μL (1×10^6 cells) were plated in a 96 well U bottom plate and incubated at 37° C. for 1 hour. […] CD3-biotin and CD28-biotin were prepared together at 10 μg/mL each, which is 10× the final concentration; 10 μL antibodies were added to the cells and incubated at 37° C. for 15 minutes. Avidin was prepared at 500 μg/mL, which is 10× the final concentration; 10 μL avidin were added to the cells and incubated at 37° C. for 5 minutes to induce TCR crosslinking. A total volume of 100 μL cells were transferred to 200 μL warm 2.4% paraformaldehyde (PFA) in deep well blocks. Pipetting was performed using a liquidator 96 to add reagents to the entire plate with uniform timing. Cells were fixed with PFA at 37° C. for 10 minutes. Cells were pelleted (1000× g for 5 minutes), and the plate was aspirated leaving approximately 100 μL residual volume. The plate was then vigorously vortexed for 10 seconds, and 1 mL −20° C. methanol was added to each well. Cells were stored at […] for approximately 1 month. […] Inhibition was measured by construction of a concentration response curve of the Log base 10 transformed values of the molar concentration of inhibitor. […]
Background: Flow cytometry measures light scatter and fluorescence of single cells or particles in a stream.

In assay [1] the test system is CD4+ T cells, Sézary cells. In words: Cytokine production by CD4+ cells and Sézary cells stimulated with anti-CD3/28/2. Type of assay: cell-based, human. An excerpt: This is significant because cytokines secreted by Th2 cells are involved in inflammation, allergy and autoimmunity. […] There was no effect on Th1-dependent IFNg, except at high concentrations. Inhibition of Th2 cells blocks production of various inflammatory cytokines, including IL-4, IL-5, IL-9, IL-13, and IL17a.

Assay [2] deals with IFNγ production by CD4+ T cells. In words: T cell activation, IFNγ+CD4+ T cells. It is filed as cell-based, human. Here is the method:
Fresh PBMCs from healthy human donors were centrifuged and reconstituted at 0.312×10^6 cells/mL in RPMI 1640 medium+10% heat-inactivated FBS+1× penicillin streptomycin and 100,000 cells/well were distributed into 24 well tissue culture plate. Cells were incubated at 37° C. for 1 hour, followed by the addition of CPI 596 or vehicle. The cells were then incubated at 37° C. for 1 hour, followed by the addition of […] anti CD3 and anti CD28 (both eBioscience). Cells were incubated at 37° C. for 6 days, with supplemental media supplied on day 3. On Day 6, the cells were transferred to a 96 deep well plate, washed, and treated with 50 nM phorbol 12-myristate 13-acetate, 1 μg/mL ionomycin, and 1 μg/mL brefeldin A, and then incubated at 37° C. for 4 hours. The cells were then fixed and permeabilized using eBioscience Fox3/transcription factor staining buffer. Cells were treated with Fc block (BioLegend) and then stained with CD3 BV605, CD45RA PerCP-Cy5.5, Tbet PE, IFNγ AF488, IL-4 APC (BioLegend), CD4 PE-Cy7, cPARP AF700 (BD Biosciences), and CD8 Krome Orange (Beckman Coulter). For flow cytometry, 300,000 cells were acquired on Cytoflex (Beckman Coulter). Data were analyzed using Flowjo software. The percentage of CD4^+ T cells that were positive for IFNγ and IL 4 were reported.

Assay [3] relates to IL-2 secretion by Jurkat T cells. The experiment in a line: Inhibition of IL-2 production in Jurkat cells. Type of assay: cell-based. To be noted: Homo sapiens, washout, anti-CD3 18 hours, 15 determinations. As for the experimental part:
Jurkat cells (0.25×10^6) in Dulbecco's Modified Eagle's medium (Gibco) supplemented with 5% FBS were seeded in each well of a 96 well MultiScreenR HV filter plate (EMD Millipore) placed on top of a 96 well collection plate. CPI 818 was serially diluted in DMSO and added to the culture. After a 2-hour incubation at 37° C. the plates were centrifuged (188×g for 15 seconds) to remove the inhibitor-containing medium from the filter plate. Cells were washed twice by resuspending with 200 μL of medium per well and centrifuged. Cells in each well were then resuspended with 1.25×10^6 (50 μL) of Dynabeads CD3 (Life Technologies) and incubated for 18 hours at 37° C. Conditioned media was collected by centrifugation (188×g for 1 min). Human IL-2 concentration was measured with the AlphaLISA human IL2 Kit (PerkinElmer) and data collected on an Envision Plate Reader (PerkinElmer). Data were analyzed and graphed using GraphPad Prism version b7.0b. Technical duplicates of the concentration response were collected at each determination.

Turning to `C=CC(=O)N1CCCN(C(=O)c2cc(Sc3cnc(NC(=O)C4CC4)s3)c(C)cc2OC)C[C@H]1C` [CPI-818], the IC50 was found to be 96 nM with S6 phosphorylation and 136 nM in assay [3]. Further, the “Interferon gamma (IFNg) production” value in assay [1] is “only inhibited at high concentrations”. Further, in assay [1] (CD4+ T cells), the Th2 cytokine production entry is on record as “dose-dependent inhibition of Th2 cytokine”. The “effect on IFNγ production” value in assay [2] (1 μM, average across samples) is 19%. Moreover, the IFNγ-positivity result in assay [2] (10 μM) is given as “robustly inhibited”. Moreover, in assay [2] (up to 1 μM, average), the “effect on percentage of IFNγ+CD4+ T cells” value is listed as under 20%.
